Assay results reported in ChEMBL document CHEMBL2029226, “Molecular Insights into Human Monoamine Oxidase B Inhibition by the Glitazone Anti-Diabetes Drugs” (ACS Med Chem Lett, 2012).
Activity calls are given as the source filed them. No cut-off for these calls is given here.

How the values were obtained:
[1] = biological target: T1, Amine oxidase [flavin-containing] B (Rattus norvegicus, UniProt P19643); experiment: Competitive inhibition of rat MAOB expressed in Pichia pastoris
T1 sequence (P19643 whole entry): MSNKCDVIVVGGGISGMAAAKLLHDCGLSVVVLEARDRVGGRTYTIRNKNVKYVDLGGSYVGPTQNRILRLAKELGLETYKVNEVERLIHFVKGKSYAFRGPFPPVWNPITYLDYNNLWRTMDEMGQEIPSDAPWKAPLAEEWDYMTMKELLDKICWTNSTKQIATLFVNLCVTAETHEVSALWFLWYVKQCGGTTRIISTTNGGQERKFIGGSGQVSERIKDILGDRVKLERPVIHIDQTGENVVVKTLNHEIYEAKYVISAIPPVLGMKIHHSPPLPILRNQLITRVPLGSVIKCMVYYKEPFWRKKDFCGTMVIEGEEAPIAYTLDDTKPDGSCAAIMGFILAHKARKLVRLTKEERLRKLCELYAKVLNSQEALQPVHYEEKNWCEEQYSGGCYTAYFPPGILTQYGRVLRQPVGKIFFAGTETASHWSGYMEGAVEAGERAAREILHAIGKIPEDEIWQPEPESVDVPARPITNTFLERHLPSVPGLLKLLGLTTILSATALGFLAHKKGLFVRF

[2] = biological target: T2, Amine oxidase [flavin-containing] A (Homo sapiens, UniProt P21397); experiment: Inhibition of human MAOA expressed in Pichia pastoris at 100 uM
T2 sequence (P21397 whole entry): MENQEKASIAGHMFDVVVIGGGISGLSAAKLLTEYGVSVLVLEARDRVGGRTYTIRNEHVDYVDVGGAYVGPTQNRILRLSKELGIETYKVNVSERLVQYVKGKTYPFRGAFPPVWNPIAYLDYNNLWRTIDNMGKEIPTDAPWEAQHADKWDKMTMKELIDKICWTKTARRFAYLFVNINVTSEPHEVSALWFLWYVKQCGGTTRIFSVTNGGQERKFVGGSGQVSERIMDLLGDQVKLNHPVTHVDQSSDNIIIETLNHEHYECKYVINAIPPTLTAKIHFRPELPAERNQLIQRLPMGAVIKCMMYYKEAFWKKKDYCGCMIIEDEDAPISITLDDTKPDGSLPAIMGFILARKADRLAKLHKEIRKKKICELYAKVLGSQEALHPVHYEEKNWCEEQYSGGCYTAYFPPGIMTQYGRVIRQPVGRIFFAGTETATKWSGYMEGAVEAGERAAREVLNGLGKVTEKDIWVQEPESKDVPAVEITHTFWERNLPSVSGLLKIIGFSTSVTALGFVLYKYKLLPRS

[3] = biological target: T3, Amine oxidase [flavin-containing] A (Rattus norvegicus, UniProt P21396); experiment: Inhibition of rat MAOA expressed in Pichia pastoris at 100 uM
T3 sequence (P21396 whole entry): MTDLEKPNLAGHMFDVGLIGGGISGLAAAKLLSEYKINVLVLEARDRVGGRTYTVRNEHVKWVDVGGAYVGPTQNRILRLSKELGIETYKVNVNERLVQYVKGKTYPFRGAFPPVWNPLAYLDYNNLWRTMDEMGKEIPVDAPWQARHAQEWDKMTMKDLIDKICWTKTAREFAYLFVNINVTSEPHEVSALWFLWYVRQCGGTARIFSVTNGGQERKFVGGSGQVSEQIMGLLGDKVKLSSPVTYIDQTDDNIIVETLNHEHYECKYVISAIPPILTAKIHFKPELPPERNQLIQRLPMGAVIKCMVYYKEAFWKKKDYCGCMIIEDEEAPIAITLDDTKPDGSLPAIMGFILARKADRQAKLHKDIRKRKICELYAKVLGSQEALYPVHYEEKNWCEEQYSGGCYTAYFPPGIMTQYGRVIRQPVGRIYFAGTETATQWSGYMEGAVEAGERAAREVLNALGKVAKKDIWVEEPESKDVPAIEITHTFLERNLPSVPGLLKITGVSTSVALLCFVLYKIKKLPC

[4] = biological target: Lysine-specific histone demethylase 1A (Homo sapiens) (UniProt O60341); experiment: Inhibition of human histone demethylase LSD1 up to 100 uM
[5] = biological target: T4, Amine oxidase [flavin-containing] B (Homo sapiens, UniProt P27338); experiment: Competitive inhibition of human MAOB expressed in Pichia pastoris
T4 sequence (P27338 whole entry): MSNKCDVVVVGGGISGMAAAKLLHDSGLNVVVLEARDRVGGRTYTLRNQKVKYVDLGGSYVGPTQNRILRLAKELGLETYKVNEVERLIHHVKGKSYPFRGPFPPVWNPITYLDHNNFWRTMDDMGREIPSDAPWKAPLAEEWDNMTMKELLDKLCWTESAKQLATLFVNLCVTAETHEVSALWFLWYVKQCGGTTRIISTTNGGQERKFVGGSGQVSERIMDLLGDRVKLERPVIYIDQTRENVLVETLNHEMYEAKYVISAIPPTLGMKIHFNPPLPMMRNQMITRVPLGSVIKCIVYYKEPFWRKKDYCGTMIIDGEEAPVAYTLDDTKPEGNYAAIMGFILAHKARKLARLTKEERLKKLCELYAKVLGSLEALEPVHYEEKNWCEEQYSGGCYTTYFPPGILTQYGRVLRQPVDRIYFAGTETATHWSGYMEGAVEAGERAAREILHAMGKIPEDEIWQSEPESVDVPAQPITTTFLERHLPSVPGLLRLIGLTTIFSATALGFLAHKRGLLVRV

[6] = biological target: T3, Amine oxidase [flavin-containing] A; experiment: Competitive inhibition of rat MAOA expressed in Pichia pastoris
[7] = biological target: T2, Amine oxidase [flavin-containing] A; experiment: Competitive inhibition of human MAOA expressed in Pichia pastoris
[8] = biological target: T2, Amine oxidase [flavin-containing] A; experiment: Uncompetitive inhibition of human MAOA expressed in Pichia pastoris
[9] = biological target: T3, Amine oxidase [flavin-containing] A; experiment: Uncompetitive inhibition of rat MAOA expressed in Pichia pastoris
[10] = biological target: T1, Amine oxidase [flavin-containing] B; experiment: Uncompetitive inhibition of rat MAOB expressed in Pichia pastoris
[11] = biological target: T4, Amine oxidase [flavin-containing] B; experiment: Uncompetitive inhibition of human MAOB expressed in Pichia pastoris

Ki [1] [µM]	inhibition (INH) [2]	inhibition (INH) [3]	inhibition [4]	Ki [5] [µM]	Ki [6] [µM]	Ki [7] [µM]	Ki [8] [µM]	Ki [9] [µM]	Ki [10] [µM]	Ki [11] [µM]	SMILES
2.1	Not Active	Not Active	inactive	–	–	–	–	–	–	–	CCc1ccc(CCOc2ccc(CC3SC(=O)NC3=O)cc2)nc1 (racemic) [PIOGLITAZONE]
5.8	–	–	inactive	4.2	32.6	27.6	–	–	–	–	CN(CCOc1ccc(CC2SC(=O)NC2=O)cc1)c1ccccn1 (racemic) [ROSIGLITAZONE]
–	–	–	inactive	–	–	–	10.5	4.8	10.9	9.5	Cc1c(C)c2c(c(C)c1O)CCC(C)(COc1ccc(CC3SC(=O)NC3=O)cc1)O2 (centres undefined) [TROGLITAZONE]
